The conditions of series [1]: in vivo; cited from earlier work.
In series [2] the test system is carrageenan-induced hind paw inflammation in rats. In words: Carrageenan-induced paw oedema rat model, paw volume measurements. The series is classed as in vivo. To be noted: RGC 400 mg/kg oral or indomethacin 2 mg/kg 2 h before carrageenan, two-way ANOVA, Bonferroni, p<0.001. From the text:
The aim of the present study was to evaluate in vivo anti-inflammatory activity of RGC (Red Grape Cells) made according to the large scale process of the invention in an acute inflammation model in rats so as to verify the efficiency of the cells produced according to the invention. One of the experimental models most widely used to study acute inflammation in rodents is that based on the intraplantar administration of carrageenan. The study assessed the efficacy of the RGC by two methods: • 1. Paw volume measurements • 2. Inflammatory nociception in freely moving rats • Red Grape Cells (RGC) prepared according to example 1. • RGC was administered orally at dose of 400 mg/kg body weight as a suspension in sterile drinking water, 2 h before carrageenan injection. The dose level was 40 mg/ml. Each rat was dosed with 1 ml of suspension per 100 g body weight. • RGC Composition: […] Rats were divided into three groups of eight rats in each group. The rats in all groups were injected with 1% Carrageenan ([…]) or sterile saline (0.9% NaCl) into the sub plantar tissue of left hind paw of each rat. The Following Tests were Performed: • paw volumes were measured hourly just before carrageenan injection at time point 0 and 1, 2, 4 hours after injection using caliper. • The paw dimensions were measured in two axes and paw volume was calculated. […]
On the technique in general: In the carrageenan paw model, swelling and tenderness develop within hours.

Series [3] relates to carrageenan-induced behavioral hyperalgesia in rats. In words: Hot plate method for measuring inflammatory nociception in freely moving rats. The series is classed as in vivo, rat. To be noted: RGC 400 mg/kg oral (p<0.01) or indomethacin 2 mg/kg (p<0.05-0.01). How it is done:
The study assessed the efficacy of the RGC by two methods: • 1. Paw volume measurements • 2. Inflammatory nociception in freely moving rats • Red Grape Cells (RGC) prepared according to example 1. • RGC was administered orally at dose of 400 mg/kg body weight as a suspension in sterile drinking water, 2 h before carrageenan injection. The dose level was 40 mg/ml. Each rat was dosed with 1 ml of suspension per 100 g body weight. • RGC Composition: […] Rats were divided into three groups of eight rats in each group. The rats in all groups were injected with 1% Carrageenan ([…]) or sterile saline (0.9% NaCl) into the sub plantar tissue of left hind paw of each rat. The Following Tests were Performed: The hot plate method was used to determine inflammatory nociception in freely moving rates. After inducing edema and treatment with vehicle, indomethacin or RGC preparation, the rats were placed on a hot plate maintained at a temperature of 55±0.5° C. The latency to flick or lick the hind paw or jump from the hot plate in comparison to its baseline was considered as the reaction time. […]
A general note: In hot-plate and tail-flick tests a longer latency is read as antinociception.

Series [4] in a line: Solubility assay of RES sources in water vs 80% methanol. In kind it is physicochemical. On the procedure: RGC, synthetic resveratrol (S-RES; Sigma-Aldrich) and resveratrol extract from the plant Polygonum Capsidatum (plant-RES) were dissolved in 80% methanol to achieve 100% dissolution. Then, all RES sources were dissolved in water at pH 2 and pH 7 and the percentage of dissolution in water was compared to the dissolution in methanol. The RES in all samples was monitored at 306 nm, based on its characteristic absorption profile, and its concentration was determined by a calibration curve of resveratrol analytical standard.

Entries after “also recorded” stand apart in the source; their conditions may differ.

Take `Oc1ccc(/C=C/c2cc(O)cc(O)c2)cc1`: the “shape of concentration time curve” value in series [1] was “distinct single concentration peak”.

Regarding `COc1ccc2c(c1)c(CC(=O)O)c(C)n2C(=O)c1ccc(Cl)cc1` [indomethacin], in series [2], the “paw edema (volume %), comparison to control group (1M)” value was “statistically significant difference at 2 and 4 h”. In addition, the “Hot plate latency delta, baseline-actual time, comparison to vehicle control (1M)” value in series [3] (FIG. 3) is “significant decrease in the latency delta of response to the thermal stimulus, 2 and 4 hours after carrageenan injection; also recorded: statistically significant difference at 2 and 4 h”. Also, the “Hot plate latency, % from baseline, comparison to control group (1M)” value in series [3] (hot plate 55°C, FIG. 2) was “statistically significant difference at 2 and 4 h”.

In the case of “resveratrol (trans-3,5,4′-trihydroxystilbene) [Synthetic-RES]”, the “dissolution in 80% methanol solution” value in series [4] (80% methanol) is recorded as “completely dissolved”. In series [4] (acidified water pH=2 as well as pH 7.0, RES monitored at 306 nm, FIG. 5), the “dissolution of RES in water, percentage compared to dissolution in methanol” value is 7%.

The record behind these values is patent US20150275169A1, “PROCESS FOR THE LARGE SCALE PRODUCTION OF FRUIT CELLS” (BIO HARVEST LTD., priority 2012, published 2015).
